Test results reported in the Deep4Chem optical property database.
One block for each molecule: values may come before it.

Experiment: photoluminescence quantum yield (fraction); solvent given as SMILES
[1] = in O=P(c1ccccc1)(c1ccccc1)c1ccccc1Oc1ccccc1P(=O)(c1ccccc1)c1ccccc1

SMILES: CCCCCCCCN1c2ccc(C#Cc3ccc(F)cc3)cc2Sc2cc(C=O)ccc21
photoluminescence quantum yield (in C1CCOC1): 0.64
photoluminescence quantum yield (in CC#N): 0.24
photoluminescence quantum yield (in CCCCCC): 0.48
photoluminescence quantum yield (in CO): 0.07
photoluminescence quantum yield (in CS(C)=O): 0.75
photoluminescence quantum yield (in Cc1ccccc1): 0.52
photoluminescence quantum yield (in ClC(Cl)Cl): 0.4

photoluminescence quantum yield (in ClCCl): 0.68
SMILES: CCCCCCOC(=O)/C=C/C1=CC2=C(c3c(C)cc(C)cc3C)c3cc(/C=C/C(=O)OCCCCCC)cn3[B-](F)(F)[N+]2=C1

SMILES: CCn1c2ccccc2c2cc(C#Cc3cc(C#Cc4ccc5c(c4)c4ccccc4n5CC)ncn3)ccc21
photoluminescence quantum yield (in C1CCOC1): 0.74
photoluminescence quantum yield (in CCOC(C)=O): 0.83
photoluminescence quantum yield (in CN(C)C=O): 0.68
photoluminescence quantum yield (in Cc1ccccc1): 0.84
photoluminescence quantum yield (in ClCCl): 0.72

SMILES: c1ccc(-c2nc(-c3ccccc3)nc(-n3c4ccccc4c4cc(-n5c6ccccc6c6ccccc65)ccc43)n2)cc1
photoluminescence quantum yield [1]: 0.62

photoluminescence quantum yield (in ClCCl): 0.41
SMILES: CC1=C(C)c2cccc3c2c(cc2nc4ccccc4nc23)O1

photoluminescence quantum yield (in ClCCl): 0.17
SMILES: Cc1cc(C)c(-c2c3ccccc3c3ccc4cc5c(-c6c(C)cc(C)cc6C)c6ccccc6c6ccc7cc2c3c4c7c56)c(C)c1

SMILES: Fc1c(F)c(-n2c3ccccc3c3ccccc32)c(F)c(F)c1/C=C/C(=C(c1ccccc1)c1ccccc1)c1ccccc1
photoluminescence quantum yield (in Cc1ccccc1): 0.001

photoluminescence quantum yield (in C1CCCCC1): 0.03
photoluminescence quantum yield (in CO): 0.71
photoluminescence quantum yield (in CS(C)=O): 0.86
photoluminescence quantum yield (in ClC(Cl)Cl): 0.72
photoluminescence quantum yield (in c1ccccc1): 0.16
SMILES: CCC1=C(C)C(=O)n2c1cc1[nH]c(C(=O)OC(C)(C)C)c(C)c1c2=O

SMILES: COc1ccc(N(c2ccc(/C=C(\C)c3ccccc3)cc2)c2ccc(OC)cc2)cc1
photoluminescence quantum yield (in Cc1ccccc1): 0.41

photoluminescence quantum yield (in C1CCCCC1): 0.02
photoluminescence quantum yield (in CO): 0.003
SMILES: Cc1ccc(/C=C/c2nc3ccccc3s2)cc1

photoluminescence quantum yield (in CC#N): 0.16
SMILES: C=CC12N=N[C@](C=C)(C3C4CCC(C4)C31)C1[C@@H]3CC[C@@H](C3)[C@H]12 (stereo partly drawn)

photoluminescence quantum yield (in CC#N): 0.94
SMILES: COc1ccc(C2=[O+][B-](F)(F)OC(c3ccc4c(c3)Cc3ccccc3-4)=C2)cc1

photoluminescence quantum yield (in CC#N): 0.3
photoluminescence quantum yield (in CCCCCC): 0.51
SMILES: C(=C\c1ccc(Nc2ccccc2)cc1)/c1ccccc1

SMILES: CC1(C)c2ccccc2N(c2ccc(-c3nc([C@]45CC6CC(C[C@@H](C6)C4)C5)nc([C@]45C[C@H]6C[C@@H](C[C@H](C6)C4)C5)n3)cc2)c2ccccc21
photoluminescence quantum yield (in CC(C)(C)c1ccc(-n2c3ccc([Si](c4ccccc4)(c4ccccc4)c4ccccc4)cc3c3cc([Si](c4ccccc4)(c4ccccc4)c4ccccc4)ccc32)cc1): 0.83

photoluminescence quantum yield (in ClC(Cl)Cl): 0.02
SMILES: Cc1nc2c(ccc3c2sc(/C=C/c2ccc(N(C)C)cc2)[n+]3C)s1

SMILES: CN(C)c1ccc(C(=O)Nc2ccc(Cl)cc2)cc1
photoluminescence quantum yield (in C1CCCCC1): 0.0011
photoluminescence quantum yield (in C1CCOC1): 0.0101
photoluminescence quantum yield (in CC#N): 0.0171
photoluminescence quantum yield (in CCOCC): 0.005

photoluminescence quantum yield (in ClC(Cl)Cl): 0.783
SMILES: N#Cc1ccc(C#Cc2ccc(C#Cc3ccccc3C#N)cc2C#N)cc1

SMILES: c1ccc(-c2nc(-c3ccccc3)nc(-c3cccc(-n4c5ccccc5c5c6oc7ccccc7c6ccc54)c3)n2)cc1
photoluminescence quantum yield [1]: 0.311

photoluminescence quantum yield (in ClC(Cl)Cl): 0.34
SMILES: COc1cc(C=C(C#Cc2ccccc2)C#Cc2ccccc2)c(OC)cc1C=C(C#Cc1ccccc1)C#Cc1ccccc1

photoluminescence quantum yield (in ClCCl): 0.43
SMILES: COc1ccc2cc(-c3cc(-c4ccccc4)c4n3[B-](F)(F)[N+]3=C5C=NC=CN5[B-](F)(F)[N+]3=C4)ccc2c1

photoluminescence quantum yield (in C1CCCCC1): 0.36
photoluminescence quantum yield (in C1CCOC1): 0.21
photoluminescence quantum yield (in CC#N): 0.13
photoluminescence quantum yield (in ClC(Cl)Cl): 0.2
photoluminescence quantum yield (in c1ccccc1): 0.3
SMILES: Cc1cc(C)c(B(c2c(C)cc(C)cc2C)c2cc3cc(N(C)C)c4ccccc4c3c3c2ccc2ccccc23)c(C)c1

photoluminescence quantum yield (in CCO): 0.35
SMILES: Cc1cc(=O)oc2ccc3ccc(-c4cn(Cc5ccccc5)nn4)cc3c12

photoluminescence quantum yield (in CC#N): 0.4
photoluminescence quantum yield (in CCCCCC): 0.28
SMILES: Cc1ccc(-n2cccc2)cc1

photoluminescence quantum yield (in CC#N): 0.61
photoluminescence quantum yield (in ClCCl): 0.99
SMILES: COc1ccc(-c2cc3c(s2)c(C(C)=O)cc(=O)n3Cc2ccccc2)cc1

photoluminescence quantum yield (in C1COCCO1): 0
photoluminescence quantum yield (in CC#N): 0
photoluminescence quantum yield (in CCCCOCCCC): 0
photoluminescence quantum yield (in CCOC(C)=O): 0
SMILES: Clc1nc(Cl)nc(Nc2ccc3cc4ccccc4cc3c2)n1

photoluminescence quantum yield (in C1CCCCC1): 0.7
SMILES: COc1ccc(-c2ccc(-c3ccccc3)cc2)cc1

photoluminescence quantum yield (in C1COCCO1): 0.14
photoluminescence quantum yield (in CC#N): 0.14
photoluminescence quantum yield (in CO): 0.11
photoluminescence quantum yield (in ClCCCl): 0.12
SMILES: CCn1c(=O)nc2n(C)c3cc(C)ccc3nc-2c1=O

photoluminescence quantum yield (in ClC(Cl)Cl): 0.06
SMILES: Cc1cccc(C2=Cc3c4ccccc4cc[n+]3[B-](F)(F)O2)c1

photoluminescence quantum yield (in CCCCCC): 0.24
SMILES: CC(C)(C)c1cc2ccc3cc(C(C)(C)C)cc4c(N(c5ccccc5)c5ccccc5)cc(c1)c2c34

SMILES: COc1c2ccccc2c(OC)c2c(C#CC(C)(C)C)c3cc4ccccc4cc3c(C#CC(C)(C)C)c12
photoluminescence quantum yield (in C1CCOC1): 0.11
photoluminescence quantum yield (in Cc1ccccc1): 0.1
photoluminescence quantum yield (in ClCCl): 0.09

photoluminescence quantum yield (in CO): 0.68
SMILES: O=C(O)CCCc1ccc2ccc3cccc4ccc1c2c34

SMILES: CCCCCCc1ccc2c3c(ccc2c1)O[B-](F)(F)[N+](c1ccc([N+]2=Cc4c(ccc5cc(CCCCCC)ccc45)O[B-]2(F)F)cc1)=C3
photoluminescence quantum yield (in C1CCOC1): 0.35
photoluminescence quantum yield (in CC#N): 0.3
photoluminescence quantum yield (in Cc1ccccc1): 0.43
photoluminescence quantum yield (in ClCCl): 0.44

photoluminescence quantum yield (in ClCCl): 0.265
photoluminescence quantum yield (in O): 0.009
SMILES: CC[N+](CC)=c1ccc2cc3c(=O)oc4cc5c(cc4c3oc-2c1)CCCN5C

photoluminescence quantum yield (in C1CCCCC1): 0.43
photoluminescence quantum yield (in C1COCCO1): 0.53
photoluminescence quantum yield (in CC#N): 0.39
photoluminescence quantum yield (in CC(C)O): 0.57
photoluminescence quantum yield (in CCCCCC): 0.4
photoluminescence quantum yield (in ClC(Cl)Cl): 0.43
photoluminescence quantum yield (in c1ccccc1): 0.39
SMILES: CC1(C)Cc2c(c3ccccc3c3nc4c(nc23)c2c(c3ccccc34)OC(C)(C)C2)O1

photoluminescence quantum yield (in ClCCl): 0.14
SMILES: CCCCCCCCCCCCCCCCCCOc1ccc([B-]23NC(c4ccccc4)=Nc4cccc([n+]42)N=C(c2ccccc2)N3)cc1

photoluminescence quantum yield (in CC#N): 0.37
photoluminescence quantum yield (in CCOC(C)=O): 0.48
photoluminescence quantum yield (in CN(C)C=O): 0.31
photoluminescence quantum yield (in CS(C)=O): 0.34
photoluminescence quantum yield (in c1ccccc1): 0.5
SMILES: CCOC(=O)CN(CC(=O)OCC)c1ccc(-c2cc(-c3ccccn3)nc(-c3ccccn3)c2)cc1

photoluminescence quantum yield (in ClCCl): 0.064
SMILES: CCn1c2c(-c3cccs3)cc(C(C)(C)C)cc2c2cc(C(C)(C)C)cc(-c3cccs3)c21

SMILES: COC(=O)/C(C#N)=c1\s/c(=c2/s/c(=C(/C#N)C(=O)OC)c3cc(-c4ccc5c(c4)C(C)(C)c4ccccc4-5)sc23)c2sc(-c3ccc4c(c3)C(C)(C)c3ccccc3-4)cc12
photoluminescence quantum yield (in Cc1ccccc1): 0.531

SMILES: CC1(C)c2ccccc2N(c2cc[n+]3c(c2)-c2ccccc2O[B-]3(F)F)c2ccccc21
photoluminescence quantum yield [1]: 0.65

photoluminescence quantum yield (in ClCCl): 0.24
SMILES: S=P1(c2ccccc2)c2cccc3c4c5ccccc5c5ccccc5c4c4ccc1n4c23 (stereo not drawn)

photoluminescence quantum yield (in C1CCCCC1): 0.3
photoluminescence quantum yield (in CCCCCO): 0.25
photoluminescence quantum yield (in CCCCO): 0.21
photoluminescence quantum yield (in CCCO): 0.19
photoluminescence quantum yield (in CCO): 0.17
photoluminescence quantum yield (in CO): 0.15
SMILES: ClC(Cl)=C1c2ccccc2C(C2(Cl)c3ccccc3C(=C(Cl)Cl)c3ccccc32)c2ccccc21 (stereo not drawn)

photoluminescence quantum yield (in ClC(Cl)Cl): 0.14
SMILES: N#Cc1cc2ccc3cc(C#N)c4ccccc4c3c2c2ccccc12

photoluminescence quantum yield (in C1CCOC1): 0.31
SMILES: CC1=C(C#Cc2ccc(N(c3ccccc3)c3ccccc3)cc2)C(C)=[N+]2C1=C(c1ccccc1)c1c(C)c(C#Cc3ccc(N(c4ccccc4)c4ccccc4)cc3)c(C)n1[B-]2(F)F

photoluminescence quantum yield (in ClCCl): 0.32
SMILES: CCCCC(CC)COc1cc(OCC(CC)CCCC)c2c#cc3ccc4c(c3)c3cc(c#cc5cc(c#cc6ccc7c(c6)c6cc(c#cc1c2)ccc6n7CC(CC)CCCC)c(C(CCCC)OCCC)cc5C(CCCC)OCCC)ccc3n4CC(CC)CCCC (stereo not drawn)

photoluminescence quantum yield (in C1CCCCC1): 0.62
photoluminescence quantum yield (in CCOC(C)=O): 0.12
SMILES: CC1=[N+]2C(=C(c3cccs3)c3ccc(C)n3[B-]2(F)F)C=C1c1cc2n(c1)[B-](F)(F)[N+]1=CC=CC1=C2c1c(C)cc(C)cc1C

SMILES: Cc1cc(C)c(B(c2ccc(N(c3ccccc3)c3ccccc3)cc2)c2c(C)cc(C)cc2C)c(C)c1
photoluminescence quantum yield (in Cc1ccccc1): 0.91

photoluminescence quantum yield (in CCO): 0.501
photoluminescence quantum yield (in ClCCl): 0.732
photoluminescence quantum yield (in O): 0.088
SMILES: CCOC(=O)c1ccccc1-c1c2ccc(=[N+](CC)CC)cc-2oc2c1oc1cc(N)ccc12

photoluminescence quantum yield (in ClCCl): 0.34
SMILES: CCCCCCCCCCCCCCCCCCOC(=O)/C=C/C1=CC2=C(c3c(C)cc(C)cc3C)c3cc(/C=C/C(=O)OCCCCCCCCCCCCCCCCCC)cn3[B-](F)(F)[N+]2=C1

SMILES: CCCCN1C(=O)c2cccc3c(N(C)C)ccc(c23)C1=O
photoluminescence quantum yield (in Cc1ccccc1): 0.95

SMILES: COc1cc(OC)cc(C2=[O+][B-](F)(F)OC(c3ccc4cc(OC)ccc4c3)=C2)c1
photoluminescence quantum yield (in CC#N): 0.22
photoluminescence quantum yield (in CC(C)=O): 0.37
photoluminescence quantum yield (in CCCCCC): 0.26
photoluminescence quantum yield (in Cc1ccccc1): 0.79
photoluminescence quantum yield (in ClCCl): 0.95

photoluminescence quantum yield (in CC#N): 0.018
SMILES: CC1[C@@H]2[C@@H]1[C@]1(c3ccccc3)N=NC2(c2ccccc2)C2C3C=CC(C3)C21 (stereo partly drawn)

photoluminescence quantum yield (in ClCCl): 0.07
SMILES: Oc1ccc2ccccc2c1-c1nc2c(c3c1-c1ccccc1CC3)-c1ccccc1CC2

SMILES: CCN(CC)c1ccc2cc(/C=C/C(=O)/C=C(O)/C=C/c3cc4ccc(N(CC)CC)cc4oc3=O)c(=O)oc2c1
photoluminescence quantum yield (in C1CCOC1): 0.62
photoluminescence quantum yield (in C1COCCO1): 0.66
photoluminescence quantum yield (in CC#N): 0.06
photoluminescence quantum yield (in CC(C)=O): 0.2
photoluminescence quantum yield (in CCOC(C)=O): 0.56
photoluminescence quantum yield (in CS(C)=O): 0.05
photoluminescence quantum yield (in Cc1ccccc1): 0.76
photoluminescence quantum yield (in ClC(Cl)Cl): 0.45
photoluminescence quantum yield (in ClCCl): 0.44

photoluminescence quantum yield (in ClCCl): 0.82
SMILES: c1ccc2c(c1)OP1(=NP3(=NP(Oc4ccc5ccc6cccc7ccc4c5c67)(Oc4ccc5ccc6cccc7ccc4c5c67)=N1)Oc1ccccc1-c1ccccc1O3)Oc1ccccc1-2

photoluminescence quantum yield (in ClC(Cl)Cl): 0.08
SMILES: CC[Si](C#Cc1c2c(=O)c3ccccc3c2c(C#C[Si](CC)(CC)CC)c2c(=O)c3ccccc3c12)(CC)CC

SMILES: CC(C)(C)c1cc2c(c(C(C)(C)C)c1)O[B-](F)(F)[n+]1c-2nc(-c2ccccc2)c2ccccc21
photoluminescence quantum yield (in Cc1ccccc1): 0.002
